Measured values: ChEMBL document CHEMBL1671858, “Coprevalence of plasmid-mediated quinolone resistance determinants QepA, Qnr, and AAC(6')-Ib-cr among 16S rRNA methylase RmtB-producing Escherichia coli isolates from pigs” (2008)
Values after ≈ are worked out from the molar mass of the structure shown.

Assays:
Assay type in all cases: functional
Escherichia coli [1] = assay: Antimicrobial activity against Escherichia coli isolate GZ8 PFGE type C harboring qepA gene by agar dilution method
Escherichia coli [2] = assay: Antimicrobial activity against Escherichia coli isolate GZ13 transconjugant harboring 16S rRNA methylase RmtB and qepA by agar dilution method relative to recipient strain
Escherichia coli [3] = assay: Antimicrobial activity against Escherichia coli isolate GZ5 transconjugant harboring 16S rRNA methylase RmtB and qepA by agar dilution method relative to recipient strain
Escherichia coli [4] = assay: Antimicrobial activity against Escherichia coli isolate CQ20 transconjugant harboring 16S rRNA methylase RmtB and qepA by agar dilution method relative to recipient strain
Escherichia coli [5] = assay: Antimicrobial activity against Escherichia coli isolate CQ15 PFGE type I1 harboring qepA gene by agar dilution method
Escherichia coli [6] = assay: Antimicrobial activity against Escherichia coli isolate CQ4 PFGE type J1 harboring qepA gene by agar dilution method
Escherichia coli [7] = assay: Antimicrobial activity against Escherichia coli isolate CQ10 transconjugant harboring 16S rRNA methylase RmtB and qepA by agar dilution method relative to recipient strain
Escherichia coli [8] = assay: Antimicrobial activity against Escherichia coli isolate GZ5 PFGE type B harboring qepA gene by agar dilution method
Escherichia coli [9] = assay: Antimicrobial activity against Escherichia coli isolate GZ13 PFGE type F harboring qepA gene by agar dilution method
Escherichia coli [10] = assay: Antimicrobial activity against Escherichia coli isolate CQ15 transconjugant harboring 16S rRNA methylase RmtB and qepA by agar dilution method relative to recipient strain
Escherichia coli [11] = assay: Antimicrobial activity against Escherichia coli isolate CQ19 PFGE type S harboring qepA gene by agar dilution method
Escherichia coli [12] = assay: Antimicrobial activity against Escherichia coli isolate CQ2 PFGE type I2 harboring qepA gene by agar dilution method
Escherichia coli [13] = assay: Antimicrobial activity against Escherichia coli isolate GZ3 transconjugant harboring 16S rRNA methylase RmtB and qepA by agar dilution method relative to recipient strain
Escherichia coli [14] = assay: Antimicrobial activity against Escherichia coli isolate GZ14 transconjugant harboring 16S rRNA methylase RmtB and qepA by agar dilution method relative to recipient strain
Escherichia coli [15] = assay: Antimicrobial activity against Escherichia coli isolate CQ14 transconjugant harboring 16S rRNA methylase RmtB and qepA by agar dilution method relative to recipient strain
Escherichia coli [16] = assay: Antimicrobial activity against Escherichia coli isolate GZ7 PFGE type N harboring qepA gene by agar dilution method
Escherichia coli [17] = assay: Antimicrobial activity against Escherichia coli isolate GZ2 PFGE type O harboring qepA gene by agar dilution method
Escherichia coli [18] = assay: Antimicrobial activity against Escherichia coli isolate GZ9 PFGE type D harboring qepA gene by agar dilution method
Escherichia coli [19] = assay: Antimicrobial activity against Escherichia coli isolate CQ20 PFGE type J1 harboring qepA gene by agar dilution method
Escherichia coli [20] = assay: Antimicrobial activity against Escherichia coli isolate CQ6 PFGE type Q harboring qepA gene by agar dilution method

In the case of CCN1CCN(c2cc3c(cc2F)c(=O)c(C(=O)O)cn3C2CC2)CC1 [ENROFLOXACIN], the MIC (Escherichia coli [1]) is reported as 64 µg/mL (≈ 178 µM), the “fold change (FC)” value (Escherichia coli [2]) is reported as 2 and the “fold change (FC)” value (Escherichia coli [3]) is reported as 8. For the same molecule, the “fold change (FC)” value (Escherichia coli [4]) was 4, the MIC (Escherichia coli [5]) was 2 µg/mL (≈ 5.56 µM) and the MIC (Escherichia coli [6]) was 0.03 µg/mL (≈ 0.0835 µM). The “fold change (FC)” value (Escherichia coli [7]) was 2, the MIC (Escherichia coli [8]) was 16 µg/mL (≈ 44.5 µM) and the MIC (Escherichia coli [9]) was 8 µg/mL (≈ 22.3 µM). For the same molecule, the “fold change (FC)” value (Escherichia coli [10]) was 16, the MIC (Escherichia coli [11]) was 2 µg/mL (≈ 5.56 µM) and the MIC (Escherichia coli [12]) was 2 µg/mL (≈ 5.56 µM). For the same molecule, the “fold change (FC)” value (Escherichia coli [13]) was 4, the “fold change (FC)” value (Escherichia coli [14]) was 8 and the “fold change (FC)” value (Escherichia coli [15]) was 2. The MIC (Escherichia coli [16]) was 32 µg/mL (≈ 89 µM), the MIC (Escherichia coli [17]) was 2 µg/mL (≈ 5.56 µM) and the MIC (Escherichia coli [18]) was 32 µg/mL (≈ 89 µM). It also gave an MIC (Escherichia coli [19]) of 0.03 µg/mL (≈ 0.0835 µM) and an MIC (Escherichia coli [20]) of 2 µg/mL (≈ 5.56 µM).
